Experimental data from patent US20090253634A1, “Methods and Compositions for the Treatment of Gastrointestinal Disorders” (MICROBIA, INC., priority 2005, published 2009).
Bridge positions count the residues as written; N and C are the ends. Peptide text beside a SMILES is read from it.

Assays:
[1] = tested on: abdominal EMG response to colorectal distension; experiment: colorectal distension in WT and GC-C KO mice, basal and TNBS-induced; assay type: in vivo; conditions: for TNBS induced hypersensitivity to CRD: oral 0.01 μg/kg
Procedure: TNBS induced visceral hypersensitivity was assessed in WT and GC-C KO mice. Two groups (WT and GC-C KO) of male mice (22-25g) were surgically prepared for electromyographic (EMG) recordings. Three electrodes were implanted in the striated muscles of the abdomen for EMG recording of abdominal contractions. Colorectal distension (CRD) was performed with a balloon inflated by 10 s steps of 0.02 ml from 0 to 0.12 ml. Under basal conditions mice were submitted to control CRD (time 0) followed by oral administration of SEQ ID NO:3 (0.01 and 0.3 μg/kg) or vehicle only (distilled water, 1 ml) at 3 hours. One hour post dosing the CRD procedure was repeated. Abdominal EMG contractile response to colorectal distension in basal conditions in both WT and GC-C KO mice (12-14 mice per group) was determined in the absence of vehicle and SEQ ID NO:3, and the mean +/− standard error of the mean (SEM) is graplhically depicted in FIG. 7c.
For TNBS induced visceral hypersensitivity conditions, mice were submitted to control CRD (time 0) and TNBS (20 mg/kg) was administered at 3 days. Three days post intracolonic TNBS-induction animals were orally admistered SEQ ID NO:3 (0.01 and 0.3 μg/kg) or vehicle (distilled water, 1 ml) 1 hour before CRD. The effect of SEQ ID NO:3 (0.01 μg/kg) on abdominal response to colorectal distension after TNBS in WT and GC-C KO mice (12-14 per group) at a volume distension of […] was determined and the mean +/− standard error of the mean (SEM) is graphically depicted in FIG. 7d.

gastrointestinal transit = experiment: murine gastrointestinal transit (GIT) assay, acute and chronic dosing; assay type: in vivo, mice
Procedure: In order to determine whether the peptides increase the rate of gastrointestinal transit, the peptides and controls were tested using a murine gastrointestinal transit (GIT) assay (Moon et al. Infection and Immunity 25:127, 1979). In this assay, charcoal, which can be readily visualized in the gastrointestinal tract is administered to mice after the administration of a test compound. The distance traveled by the charcoal is measured and expressed as a percentage of the total length of the […].
Mice were fasted with free access to water for 12 to 16 hours before the treatment with peptide or control buffer. The peptides were orally administered at 1 μg/kg-1 mg/kg of peptide in buffer ([…] pH 7.5) 7 minutes before being given an oral dose of 5% Activated Carbon (Aldrich 242276-250G). Control mice were administered buffer only before being given a dose of Activated Carbon. After 15 minutes, the mice were sacrificed and their intestines from the stomach to the cecum were dissected. The total length of the intestine as well as the distance traveled from the stomach to the charcoal front was measured for each animal and the results are expressed as the percent of the total length of the intestine traveled by the charcoal front. All results are reported as the average of 10 mice±standard deviation. A comparison of the distance traveled by the charcoal between the mice treated with peptide versus the mice treated with vehicle alone was performed using a Student's t test and a statistically significant difference was considered for P<0.05. P-values are calculated using a two-sided T-Test assuming unequal variances.
The identical experiment was performed to determine if SEQ ID NO:3 is effective in a chronic dosing treatment regimen. Briefly, 8 week old CD1 female mice are dosed orally once a day for 5 days with either SEQ ID NO:3 (0.06 mg/kg or 0.25 mg/kg in 20 mM Tris pH 7.5) or vehicle alone (20 mM Tris pH 7.5). On the 5th day, a GIT assay is performed identical to that above except 200 μl of a 10% charcoal solution is administered. […] The results are shown side by side with acute dosing (1 day).

PBQ-induced writhing = experiment: phenylbenzoquinone (PBQ)-induced writhing model

SMILES: C[C@@H]1NC(=O)[C@@H]2CCCN2C(=O)[C@H](CC(N)=O)NC(=O)[C@@H]2CSSC[C@H](N)C(=O)N[C@H]3CSSC[C@H](NC1=O)C(=O)N[C@@H]([C@@H](C)O)C(=O)NCC(=O)N[C@H](C(=O)N[C@@H](Cc1ccc(O)cc1)C(=O)O)CSSC[C@H](NC(=O)[C@H](Cc1ccc(O)cc1)NC(=O)[C@H](CCC(=O)O)NC3=O)C(=O)N2 [SEQ ID NO:3] (H-CCEYCCNPACTGCY-OH; disulfide 1-6, 2-10, 5-13; N-terminus and C-terminus assumed)
- TNBS induced hypersensitivity to CRD ([1]; GC-C KO mice): not observed
- TNBS induced hypersensitivity to CRD ([1]; WT mice, volume distension of 0.8 ml): reduces the TNBS induced hypersensitivity to CRD
- EMG response to colorectal distension ([1]; basal conditions, WT mice, oral 0.01 and 0.3 μg/kg): decreased the EMG response to colorectal distension
- intestinal transit rates versus Tris buffer or equivalent dose of Zelnorm (gastrointestinal transit; acute, chemically synthesized peptides, FIG. 4b): increase intestinal transit rates more than either Tris buffer alone or an equivalent dose of Zelnorm®
- gastrointestinal transit rate (gastrointestinal transit; acute, oral, SEQ ID NO:4 and Zelnorm 0.1 mg/kg, FIG. 3a, 3b): increase gastrointestinal transit rate
- effect in mouse gastrointestinal motility assay upon chronic dosing (gastrointestinal transit; oral once a day for 5 days, SEQ ID NO:3 0.06 or 0.25 mg/kg, FIG. 4c): effective
- writhings versus vehicle control (PBQ-induced writhing; 2.5 mg/kg dose, oral): Significant reductions in writhings
- antinociceptive effect compared with indomethacin (PBQ-induced writhing; PBQ writhing assay): antinociceptive effects in this visceral pain model comparable to the intermediate doses of indomethacin
